Values belong to the sequence of their own block, whether it stands above or below them.
Tested on: GST-tagged Cn
Assay: PEPperPRINT peptide microarray binding assay with GST-tagged Cn
How it was run: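 Qualitative binding: peptides printed on a PEPperPRINT microarray were incubated overnight at 4 °C with 1 mg/ml GST-tagged Cn, then detected with Alexa-Fluor 647 anti-GST antibody. Log fluorescence was baseline-corrected, averaged over duplicate spots, Z-normalized and averaged across five repeats.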

[1] = GST-tagged Cn, max over the spots named in Location on chip
[2] = GST-tagged Cn, mean over the spots named in Location on chip
[3] = GST-tagged Cn, max over the chip spots listed under Location on chip
[4] = GST-tagged Cn, mean over the chip spots listed under Location on chip
[5] = max over the chip locations listed for the peptide (two spots)
[6] = mean over the chip locations listed for the peptide (two spots)
[7] = GST-tagged Cn, max over the chip locations
[8] = GST-tagged Cn, mean over the chip locations
[9] = max over the spots listed under Location on chip
[10] = mean over the spots listed under Location on chip
[11] = GST-tagged Cn, max over the spots on the chip (two locations)
[12] = GST-tagged Cn, mean over the spots on the chip (two locations)

Chip Fluorescence (max) [1]: 1.743 | Chip Fluorescence (mean) [2]: -0.1357
Sequence: MRRERSNRAMFKVNQH [Seqrandom_9977]

Chip Fluorescence (max) [3]: 0.4752 | Chip Fluorescence (mean) [4]: -0.03556
Sequence: MTPAAPIVRLHIPSSV [SeqRBM_8521]

Chip Fluorescence (max) [1]: 1.453 | Chip Fluorescence (mean) [2]: -0.5656
Sequence: NAWKNPGQETHTTKKL [Seqshuffled_9929]

Chip Fluorescence (max) [5]: 3.477 | Chip Fluorescence (mean) [6]: 1.051
Sequence: NDHNTNDWSFELGQTV [Seqshuffled_9000]

Chip Fluorescence (max) [3]: 0.9409 | Chip Fluorescence (mean) [4]: -0.6593
Sequence: NGPGTPSRQGQPAAPS [SeqRTS1_Penicillium_nalgiovense]

Chip Fluorescence (max) [3]: 0.749 | Chip Fluorescence (mean) [4]: -1.0469
Sequence: NGPGTPTRQGQPLAPS [SeqRBMlowT_7792]

Chip Fluorescence (max) [3]: 0.6682 | Chip Fluorescence (mean) [4]: -0.9835
Sequence: NGPSTPTKQGQPMAPS [SeqRBM_8324]

Chip Fluorescence (max) [9]: 2.929 | Chip Fluorescence (mean) [10]: 1.69
Sequence: NICTSLTLVETDPTVY [Seqshuffled_9501]

Chip Fluorescence (max) [1]: 1.398 | Chip Fluorescence (mean) [2]: -0.3065
Sequence: NIIKTLTAVARYCQHF [Seqrandom_9968]

Chip Fluorescence (max) [7]: -0.2717 | Chip Fluorescence (mean) [8]: -1.157
Sequence: NSSGAPQFQINVLMGE [SeqRBM_9653]

Chip Fluorescence (max) [3]: 0.7584 | Chip Fluorescence (mean) [4]: -1.743
Sequence: NVPKGIRFRRTYLAIP [Seqshuffled_5577]

Chip Fluorescence (max) [11]: 1.294 | Chip Fluorescence (mean) [12]: 0.4829
Sequence: PAFFCEGFTIQADSLD [Seqshuffled_9825]

Chip Fluorescence (max) [9]: 3.117 | Chip Fluorescence (mean) [10]: 1.082
Sequence: PAGAGVGIVITVTEAE [SeqRBMlowT_166]

Chip Fluorescence (max) [11]: 1.221 | Chip Fluorescence (mean) [12]: -0.03937
Sequence: PAGTGVGIVITVTEAE [SeqRBMlowT_157]

Chip Fluorescence (max) [11]: 1.28 | Chip Fluorescence (mean) [12]: 0.6681
Sequence: PDEAQPGIVVHVCELP [SeqRBMlowT_301]

Chip Fluorescence (max) [1]: 1.719 | Chip Fluorescence (mean) [2]: -0.09544
Sequence: PDESTPEITITPAELP [SeqRBMlowT_5714]

Chip Fluorescence (max) [3]: 0.8772 | Chip Fluorescence (mean) [4]: -0.6992
Sequence: PENKFQPFAIKLCVKG [Seqshuffled_5021]

Chip Fluorescence (max) [1]: 1.396 | Chip Fluorescence (mean) [2]: 0.78
Sequence: PFEKNDIQQIHLEEHP [Seqshuffled_9861]

Chip Fluorescence (max) [1]: 1.48 | Chip Fluorescence (mean) [2]: -0.4167
Sequence: PFLAEQYMVVEEMTVS [Seqshuffled_9732]

Chip Fluorescence (max) [9]: 2.883 | Chip Fluorescence (mean) [10]: 1.506
Sequence: PGDDQPGIIVHPCEEP [SeqRBMlowT_1949]

Chip Fluorescence (max) [5]: 13.8972 | Chip Fluorescence (mean) [6]: 1.628
Sequence: PGLYDNALGIEQFTLS [SeqRBMlowT_2874]

Chip Fluorescence (max) [1]: 1.445 | Chip Fluorescence (mean) [2]: 0.04021
Sequence: PGLYDNALGIESFTLS [SeqRBMlowT_2801]

Chip Fluorescence (max) [11]: 1.201 | Chip Fluorescence (mean) [12]: 0.8541
Sequence: PGLYDNALGMESFTLS [SeqRBMlowT_2805]

Chip Fluorescence (max) [9]: 2.636 | Chip Fluorescence (mean) [10]: -0.01431
Sequence: PKMAPPAINIDFAPTN [SeqRBMlowT_1805]

Chip Fluorescence (max) [11]: 1.2058 | Chip Fluorescence (mean) [12]: -0.8596
Sequence: PKMAPPCINIDFAPTN [SeqRBMlowT_319]

Chip Fluorescence (max) [5]: 4.334 | Chip Fluorescence (mean) [6]: 3.231
Sequence: PLGTQPGIVVHVCELN [SeqRBMlowT_356]

Chip Fluorescence (max) [3]: 0.8908 | Chip Fluorescence (mean) [4]: 0.2837
Sequence: PMLVFRALRIHESPLP [Seqshuffled_9670]

Chip Fluorescence (max) [7]: -0.5504 | Chip Fluorescence (mean) [8]: -1.127
Sequence: PPPGTPTRIGQHMAPS [SeqRBM_7926]

Chip Fluorescence (max) [3]: 0.4517 | Chip Fluorescence (mean) [4]: -0.7977
Sequence: PQLYQNVLGIGSFSLS [SeqRBMlowT_4804]

Chip Fluorescence (max) [1]: 1.458 | Chip Fluorescence (mean) [2]: -0.38
Sequence: PQMAPPAINIDFAPTN [SeqRBMlowT_2475]

Chip Fluorescence (max) [1]: 1.4183 | Chip Fluorescence (mean) [2]: 0.4268
Sequence: PQPSVQSAEFMEFVGH [Seqshuffled_8788]

Chip Fluorescence (max) [9]: 2.878 | Chip Fluorescence (mean) [10]: -0.2496
Sequence: PSDDQPGIIVHPAEED [SeqRBMlowT_1217]

Chip Fluorescence (max) [1]: 1.806 | Chip Fluorescence (mean) [2]: 0.4598
Sequence: PSDDQPGIVVHPCEED [SeqRBMlowT_365]

Chip Fluorescence (max) [9]: 3.302 | Chip Fluorescence (mean) [10]: 0.8695
Sequence: PSDPQPSIIVHACLED [SeqRBM_9284]

Chip Fluorescence (max) [5]: 4.395 | Chip Fluorescence (mean) [6]: 0.1564
Sequence: PSEDQPGIVVHVCEED [SeqRBMlowT_124]

Chip Fluorescence (max) [5]: 3.843 | Chip Fluorescence (mean) [6]: 0.9779
Sequence: PSEDQPGIVVHVCEEG [SeqRBMlowT_361]

Chip Fluorescence (max) [9]: 2.963 | Chip Fluorescence (mean) [10]: 0.4149
Sequence: PSLYENALGIESFTLS [SeqRBMlowT_6913]

Chip Fluorescence (max) [1]: 1.442 | Chip Fluorescence (mean) [2]: 0.7319
Sequence: PSLYENALGMEAFTIS [SeqRBMlowT_4846]

Chip Fluorescence (max) [3]: 0.9672 | Chip Fluorescence (mean) [4]: 0.03589
Sequence: PSMAAPAINIDFAPTN [SeqRBMlowT_2463]

Chip Fluorescence (max) [3]: 0.973 | Chip Fluorescence (mean) [4]: 0.3644
Sequence: PSPDQPGIVVHTCEDD [SeqRBMlowT_9795]

Chip Fluorescence (max) [3]: 0.8318 | Chip Fluorescence (mean) [4]: -0.05808
Sequence: QASKNSNMQRSFHVNA [Seqshuffled_9426]

Chip Fluorescence (max) [11]: 0.9897 | Chip Fluorescence (mean) [12]: 0.1872
Sequence: QFKKSNLLGFMAASGD [Seqshuffled_9600]

Chip Fluorescence (max) [11]: 1.242 | Chip Fluorescence (mean) [12]: -0.2303
Sequence: QKRYGETFPPVKTGSD [Seqshuffled_1489]

Chip Fluorescence (max) [3]: 0.7348 | Chip Fluorescence (mean) [4]: -0.3913
Sequence: QLRDIFQGRMITILTP [Seqshuffled_3466]

The remaining lines, values behind:

Sequence: NDHALPEITVTPAELP [SeqRBM_7856]
Chip Fluorescence (max) [5]: 4.823 | Chip Fluorescence (mean) [6]: 1.654

Sequence: NFNPNPAVVLKIPQQR [SeqRBM_5953]
Chip Fluorescence (max) [7]: -0.355 | Chip Fluorescence (mean) [8]: -1.487

Sequence: NIEKMPELQACGHTSF [SeqRBM_2022]
Chip Fluorescence (max) [5]: 4.705 | Chip Fluorescence (mean) [6]: 1.485

Sequence: NKLKIPHQLSQPINDH [SeqRBM_2163]
Chip Fluorescence (max) [9]: 2.778 | Chip Fluorescence (mean) [10]: 0.1403

Sequence: NMATVPAVTMGEVART [SeqRBM_5293]
Chip Fluorescence (max) [9]: 2.99 | Chip Fluorescence (mean) [10]: -0.7897

Sequence: NMGTGVGIVITITEAV [SeqAKAP79_Meleagris_gallopavo]
Chip Fluorescence (max) [9]: 2.665 | Chip Fluorescence (mean) [10]: 0.9097

Sequence: NNSESPKIAITTTLGN [SeqRBM_1677]
Chip Fluorescence (max) [1]: 1.504 | Chip Fluorescence (mean) [2]: -0.4285

Sequence: NVLRISSARPDNRGVY [SeqCEACAM5_Musca_domestica]
Chip Fluorescence (max) [1]: 1.598 | Chip Fluorescence (mean) [2]: 0.6708

Sequence: NVSSSPRVTLKIPQHR [SeqRBM_7185]
Chip Fluorescence (max) [11]: 1.102 | Chip Fluorescence (mean) [12]: 0.1459

Sequence: NWPETPSIVEQPPSSS [SeqRBM_881]
Chip Fluorescence (max) [7]: 0.2051 | Chip Fluorescence (mean) [8]: -1.045

Sequence: PALESPRIEITSCLGL [SeqNFATC1_Homo_sapiens]
Chip Fluorescence (max) [1]: 1.48 | Chip Fluorescence (mean) [2]: 0.3949

Sequence: PALESPRIEITSYLGM [SeqNFATC1_Canis_lupus]
Chip Fluorescence (max) [1]: 1.5159 | Chip Fluorescence (mean) [2]: -0.48

Sequence: PALYDNALGIESFTLS [SeqCRZ1_Penicillium_arizonense]
Chip Fluorescence (max) [1]: 1.355 | Chip Fluorescence (mean) [2]: 0.6125

Sequence: PGCATPRIAITPTENM [SeqRBM_2983]
Chip Fluorescence (max) [11]: 1.167 | Chip Fluorescence (mean) [12]: 0.2882

Sequence: PGLYENALGMESFSIS [SeqCRZ1_Ajellomyces_capsulatus]
Chip Fluorescence (max) [1]: 1.795 | Chip Fluorescence (mean) [2]: 0.6954

Sequence: PKEDLPVITIDPASPQ [SeqNHE1_Pan_troglodytes]
Chip Fluorescence (max) [3]: 0.9606 | Chip Fluorescence (mean) [4]: -0.5019

Sequence: PMMAVPSISSDVSNAP [SeqRBM_5566]
Chip Fluorescence (max) [1]: 1.398 | Chip Fluorescence (mean) [2]: 0.7603

Sequence: PNLYENTLGIEQFTLS [SeqRBM_7749]
Chip Fluorescence (max) [1]: 1.865 | Chip Fluorescence (mean) [2]: 0.2079

Sequence: PSALIPSLSMDPSMSE [SeqRBM_6067]
Chip Fluorescence (max) [5]: 4.106 | Chip Fluorescence (mean) [6]: 0.6019

Sequence: PSLFPDALGLGQFSLS [SeqCRZ1_Aureobasidium_pullulans]
Chip Fluorescence (max) [11]: 1.272 | Chip Fluorescence (mean) [12]: 0.42

Sequence: PSMYQPHIIVKVAETE [SeqRBM_4049]
Chip Fluorescence (max) [11]: 1.118 | Chip Fluorescence (mean) [12]: 0.1884

Sequence: PSSCTPHLYARVHKGQ [SeqRBM_1451]
Chip Fluorescence (max) [7]: 0.2872 | Chip Fluorescence (mean) [8]: -1.296

Sequence: PVHTIHRVSLQDAGKY [SeqCEACAM5_Aedes_aegypti]
Chip Fluorescence (max) [3]: 0.8319 | Chip Fluorescence (mean) [4]: -0.7144

Sequence: QAIYQDILGIGAFSGS [SeqRBM_285]
Chip Fluorescence (max) [11]: 1.266 | Chip Fluorescence (mean) [12]: -0.8575

Sequence: QAVMCTAMSWCDCGQR [SeqRBM_6860]
Chip Fluorescence (max) [11]: 1.273 | Chip Fluorescence (mean) [12]: 0.6916

Sequence: QELFISNITVDHSGSY [SeqCEACAM5_Aotus_nancymaae]
Chip Fluorescence (max) [5]: 6.254 | Chip Fluorescence (mean) [6]: 1.438

Sequence: QGIYQDLGGINNFSIS [SeqCRZ1_Pseudogymnoascus_sp]
Chip Fluorescence (max) [7]: -0.4093 | Chip Fluorescence (mean) [8]: -1.098

Sequence: QGLYENVLGMEAFSVS [SeqRBM_7629]
Chip Fluorescence (max) [3]: 0.8552 | Chip Fluorescence (mean) [4]: 0.1691

Sequence: QGYKNPSAQFEPIGTK [SeqRBM_6874]
Chip Fluorescence (max) [7]: -0.3081 | Chip Fluorescence (mean) [8]: -1.163

Sequence: QHMSVPKIQVTPTEIE [SeqRBM_9954]
Chip Fluorescence (max) [5]: 4.025 | Chip Fluorescence (mean) [6]: 2.718

Sequence: QLLAVPALSVDRKGPK [SeqCACUL1_Dipodomys_ordii]
Chip Fluorescence (max) [11]: 1.085 | Chip Fluorescence (mean) [12]: -0.04024

Sequence: QPPQNPVATVSTAHHQ [SeqRBM_6519]
Chip Fluorescence (max) [1]: 1.708 | Chip Fluorescence (mean) [2]: -0.008148
